Experimental data taken from article PMC3280214, “Structure Based Discovery of Small Molecules to Regulate the Activity of Human Insulin Degrading Enzyme” (PLoS ONE, 2012).
Values joined by “and” are separate entries in the source; they are usually repeats but may differ in a detail not shown here. Equal values may be shown once. “Also recorded” adds a separate entry of the source.

Molecular target: T1, IDE (Homo sapiens, UniProt P14735)
T1 construct: made in house; host or cells: E. coli BL21
T1 sequence (P14735 1-1019): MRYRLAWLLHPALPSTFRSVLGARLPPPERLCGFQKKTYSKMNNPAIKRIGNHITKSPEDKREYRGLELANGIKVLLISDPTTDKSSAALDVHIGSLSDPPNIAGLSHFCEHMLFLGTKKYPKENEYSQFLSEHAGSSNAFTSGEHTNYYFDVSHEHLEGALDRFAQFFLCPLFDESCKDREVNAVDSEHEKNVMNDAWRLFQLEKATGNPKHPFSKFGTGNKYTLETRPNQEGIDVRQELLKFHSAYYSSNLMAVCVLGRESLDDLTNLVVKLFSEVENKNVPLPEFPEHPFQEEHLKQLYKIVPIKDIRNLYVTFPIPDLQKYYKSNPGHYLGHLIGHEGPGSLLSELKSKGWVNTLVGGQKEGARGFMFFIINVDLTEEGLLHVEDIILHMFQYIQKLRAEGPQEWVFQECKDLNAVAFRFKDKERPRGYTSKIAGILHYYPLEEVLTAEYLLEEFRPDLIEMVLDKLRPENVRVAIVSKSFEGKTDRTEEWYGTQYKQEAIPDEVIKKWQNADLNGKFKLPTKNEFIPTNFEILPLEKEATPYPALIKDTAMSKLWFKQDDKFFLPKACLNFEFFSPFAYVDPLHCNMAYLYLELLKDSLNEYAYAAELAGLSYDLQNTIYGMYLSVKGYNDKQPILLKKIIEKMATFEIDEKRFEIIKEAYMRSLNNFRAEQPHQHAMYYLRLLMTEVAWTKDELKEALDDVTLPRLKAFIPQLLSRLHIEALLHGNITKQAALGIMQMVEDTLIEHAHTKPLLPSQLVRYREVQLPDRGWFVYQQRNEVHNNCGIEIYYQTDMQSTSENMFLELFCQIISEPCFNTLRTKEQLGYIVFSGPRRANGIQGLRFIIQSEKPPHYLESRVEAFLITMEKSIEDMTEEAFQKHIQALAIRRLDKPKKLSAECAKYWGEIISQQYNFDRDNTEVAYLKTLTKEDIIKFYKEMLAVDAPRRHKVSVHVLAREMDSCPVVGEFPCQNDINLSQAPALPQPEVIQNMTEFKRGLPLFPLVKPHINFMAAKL
Experiment: Degradation of FITC-insulin-mAb by IDE
Type: biochemical
Conditions: for increase of IDE-mediated insulin (FITC-insulin-mAb) degradation: 20 µM compound; for effect of ATP on IDE activity for insulin degradation in presence of compound: 0.1 mM ATP; for EC50: dose response, Sigmoidal Hill 4 parameter fit; for increase of initial rate of proteolysis of FITC-insulin bound with antibody: wild type IDE, presence vs absence of compound
Protocol: The 10 compounds given in Table 1 were subjected to further characterization and their effect was measured on the proteolytic activity of IDE using different substrates. Initially, activity assays were carried out at fixed 20 µM concentrations for all molecules to identify the effect of those compounds on IDE activity. IDE activity was quantified by monitoring the change in fluorescence for the proteolysis of fluorogenic-substrate V, FITC- insulin-bound antibody, and FAβB by recombinant human IDE purified from E.coli BL21 [6], [18], [19]. […] Also, D6 increased the amyloid-β degradation by 20% (Fig. S1C). Further, D10 enhanced IDE-mediated FITC-insulin-mAb and substrate V degradation by 290% and 65%, respectively (Fig. S1A, B). Next, an EC50 value of each molecule that enhanced IDE activity was determined with a dose response assay, where specific activity of IDE was measured with different concentrations of the lead compounds and then the plot was fit to Sigmoidal Hill-4 parameter equation. […] EC50 value for D3 on insulin degradation was approximately measured as 20 µM (Fig. S2C), whereas EC50 value for D6 on amyloid-β degradation was 2 µM (Fig. S2D). […] Among all these four compounds, D10 seems to be the potent activator of IDE, when proteolysis of insulin is considered.
In order to measure degradation of insulin by IDE, FITC-insulin is bound to the monoclonal mouse anti-human-insulin, so that the rotation of free FITC and possible changes in fluorescence polarization could be prevented. We performed enzymatic assays, using only FITC-insulin bound antibody as a background fluorescence and checked the effects of compounds on the cleavage of FITC-insulin-mAb. FITC-insulin is bound to mouse anti human insulin antibody in PBS at 37°C for 1 hour, which is higher than the optimum time required to obtain maximum binding of insulin-FITC conjugate and mAb. It is observed that 400 nM mAb completely binds to 50 nM FITC-insulin (Fig. S7). Since molecular weights of FITC-insulin and mAb are about 5.8 kDa and 60 kDa respectively, we observed very slight shift in the gel as expected. In figure S7, it is observed in lane 4 that 50 nM (100 ng) insulin is completely bound to 400 nM mAb in lane 4 (Fig. S7). […] The binding between insulin and mAb is shown by performing (%5 and %15) native polyacrylamide gel electrophoresis.
The utility of these novel compounds were tested on degradation of insulin by IDE. First insulin was labeled with FITC as described previously. Briefly, 500 mg insulin dissolved in 1.5 ml of 0.1 M Na-carbonate, at pH 7, and 0.2 mM EDTA. Then, 4.5 mg FITC was dissolved in 200 µl acetone and was added dropwise to previous solution at room temperature for 20 h ([FITC]∶[insulin], 3∶1). Finally, unreacted FITC was removed by dialysis and the FITC-insulin was stored at −20°C. The proteolysis of insulin by IDE was monitored by measuring the changes in fluorescence, where the reaction was carried out with 100 nM of FITC- insulin-mAb and IDE (80 ng) in 100 µl KH2PO4 buffer at a pH of 7.3. Reaction was carried out at 37°C for different time intervals (0–4 hours). The increase in fluorescence was monitored by using Fluoroskan Ascent FL microplate reader (Thermo).
The effect of the lead compounds on the initial rate of proteolysis of IDE was determined by measurement in fluorescence with time both in the presence and absence of the lead compounds. The kinetic data for IDE-mediated insulin, substrate V and amyloid-β degradation were plotted and fitted using SigmaPlot software (Sigmoidal, Hill, 4 parameter). For the initial rate calculations, kinetic data were fitted using SigmaPlot software (Hyperbola; Single Rectangular I, 3 Parameter).

| SMILES | increase of IDE-mediated insulin (FITC-insulin-mAb) degradation | effect of ATP on IDE activity for insulin degradation in presence of compound | EC50 [µM] | increase of initial rate of proteolysis of FITC-insulin bound with antibody [fold] |
| --- | --- | --- | --- | --- |
| COc1ccc(C2C(C(=O)Nc3ccccc3)=C(C)N=c3sc(=Cc4cn(C)nc4C)c(=O)n32)cc1 (stereo not drawn) [Compound D3] | 72% | did not change significantly; also recorded: no effect | ~20 | ~7.5 |
| Nc1c(C(=O)Nc2ccccc2F)c2ccccn2c1C(=O)c1ccc2c(c1)CCCC2 [Compound D4] | 60% | did not change significantly; also recorded: no effect | 13 | ~12 |
| Cc1nn(-c2ccccc2)c2nc(-c3cccc([N+](=O)[O-])c3)n3c4ccccc4nc3c2c1=O [Compound D10] | 290% and ~275% | did not change significantly; also recorded: no effect | 12 | ~49 |
